Experimental data taken from patent publication US8247377B2, “Non-steroidal glucocorticoid inhibitors and their use in treating inflammation, allergy and auto-immune conditions” (Glaxo Group Limited, priority 2006, dated 2012).

Experiments:
glucocorticoid receptor = biological target: T1, glucocorticoid receptor (Homo sapiens, UniProt P04150); test: Glucocorticoid receptor binding assay (fluorescence polarisation); settings: competition with Alexa 555 fluorescently-labelled dexamethasone derivative, full length glucocorticoid receptor; read-out: glucocorticoid binding pIC50 (converted)
T1 construct: a partially purified full length glucocorticoid receptor
T1 sequence (P04150 1-777): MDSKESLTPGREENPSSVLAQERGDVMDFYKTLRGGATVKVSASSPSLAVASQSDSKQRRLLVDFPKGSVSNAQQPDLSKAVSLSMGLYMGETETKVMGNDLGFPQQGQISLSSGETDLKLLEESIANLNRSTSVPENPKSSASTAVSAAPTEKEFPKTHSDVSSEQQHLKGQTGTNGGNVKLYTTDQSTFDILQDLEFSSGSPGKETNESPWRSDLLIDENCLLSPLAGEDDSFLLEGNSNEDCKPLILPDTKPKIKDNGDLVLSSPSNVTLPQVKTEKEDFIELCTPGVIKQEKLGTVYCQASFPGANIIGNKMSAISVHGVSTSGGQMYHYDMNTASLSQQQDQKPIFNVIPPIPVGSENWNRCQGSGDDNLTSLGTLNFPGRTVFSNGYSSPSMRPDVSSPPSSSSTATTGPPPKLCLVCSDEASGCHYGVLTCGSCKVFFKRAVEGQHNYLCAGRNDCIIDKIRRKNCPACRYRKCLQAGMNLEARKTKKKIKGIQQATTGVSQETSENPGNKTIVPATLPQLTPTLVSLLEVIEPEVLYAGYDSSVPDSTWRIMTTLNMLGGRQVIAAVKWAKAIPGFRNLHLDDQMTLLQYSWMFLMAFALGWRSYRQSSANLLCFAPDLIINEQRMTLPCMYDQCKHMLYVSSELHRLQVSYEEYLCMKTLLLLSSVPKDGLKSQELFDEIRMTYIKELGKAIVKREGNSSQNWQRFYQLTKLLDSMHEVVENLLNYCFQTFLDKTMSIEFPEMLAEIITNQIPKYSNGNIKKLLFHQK
Method in brief: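 Compounds in DMSO incubated with fluorescent dexamethasone and partially purified full-length GR plus stabilising buffer components, 2 hrs at room temperature in the dark. Displacement read as decrease in fluorescence polarisation; pIC50 estimated from dose-response curves.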

NFκB = NFκB agonist assay in A549 SPAP cells; type: cell-based; settings: Homo sapiens; for Emax: A549, A549 SPAP cells, >85% = full agonist, ≧20% = partial or full agonist, read-out: average maximum asymptote in the NFkB assay; for IC50: A549 SPAP cells, TNFα 3.2 ng/ml, read-out: pIC50 for the NFkB assay (converted);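 for average maximum asymptote in the NFkB assay: maximum inhibition of the TNFα-induced NFκB-driven signal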
Method in brief: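 A549 cells stably carrying an ELAM/NFκB-driven SPAP reporter were pre-incubated 1 h at 37° C with compound, then stimulated with TNFα (3.2 ng/ml final) for 15 h. SPAP activity read colorimetrically with pNPP at 405 nm after ~1 h; pIC50 estimated from dose-response curves.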

MMTV promoter = test: MMTV agonist assay in A549 MMTV cells; type: cell-based; settings: Homo sapiens, A549, 6 h, >85% = full agonist, >20% and <85% = partial or efficacy selective agonist, read-out: average maximum asymptote in the MMTV agonist assay
Excerpt: Human lung carcinoma A549 cell line (ECACC No. 86012804) has been stably transfected in house with a plasmid containing a renilla luciferase reporter with an MMTV promoter. Stimulation of the cell line with GR agonists results in intracellular signal transduction and ultimately translocation of GR into the nucleus. This activates the inserted DNA sequence resulting in transcription of the integrated luciferase gene, which is quantified using a light emission. The stably transfected cell line was grown as a monolayer in DMEM supplemented with FCS-HI (10%), Non-essential amino acids (1%), L-Glutamine (2 mM), Pen/Strep (1%) and Geneticin (50 mg/ml).
A 90% confluent T175 flask of A549 MMTV cells was harvested by centrifugation for 5 min at 200 g, resuspended in assay buffer (DMEM supplemented with 10% FCS 2×HI, 2 mM Glutamax, Non essential amino acids and 25 mM HEPES) and diluted to 0.1×10^6/ml. 70 μl of cell solution was dispensed to each well of white Nunc 384-well plates, containing compound at the required concentration. Plates were incubated for 6 h at 37° C., 95% humidity, 5% CO2. Plates were equilibrated to room temperature for 1 h prior to the addition of 10 μl of Renilla substrate to each well of assay plates. The plates were covered to protect the reagents from light, and then incubated at room temperature for approximately 15 mins before reading them on a Viewlux. Dose response curves were constructed from which pEC50 and maximum asymptote values were estimated.

Row | Compound | IC50 (glucocorticoid receptor) [µM] | Emax (NFκB) [%] | IC50 (NFκB) [µM] | Emax (MMTV promoter) [%]
1 | CCN(CC(O)(CNC(=O)c1cnn(-c2ccc(F)cc2)c1N)C(F)(F)F)C(=O)c1c(Cl)cccc1OC(F)F (racemic) [Example 25 (racemic), 5-amino-N-(2-{[({2-chloro-6-[(difluoromethyl)oxy]phenyl}carbonyl)(ethyl)amino]methyl}-3,3,3-trifluoro-2-hydroxypropyl)-1-(4-fluorophenyl)-1H-pyrazole-4-carboxamide] | ≤ 0.316 | > 85 | < 1 | > 85
2 | Nc1c(C(=O)NCC(O)(CNC(=O)c2c(F)cccc2Br)C(F)(F)F)cnn1-c1ccc(F)cc1 (single isomer, unassigned) [Example 13 Enantiomer 1, 5-Amino-N-[2-({[(2-bromo-6-fluorophenyl)carbonyl]amino}methyl)-3,3,3-trifluoro-2-hydroxypropyl]-1-(4-fluorophenyl)-1H-pyrazole-4-carboxamide] | ≤ 0.316 | ≥ 20 | < 1 | 20 to 85
3 | Nc1c(C(=O)NCC(O)(CNC(=O)c2c(Cl)cccc2OC(F)F)C(F)(F)F)cnn1-c1ccc(F)cc1 (single isomer, unassigned) [Example 14 Enantiomer 1, 5-Amino-N-(2-{[({2-chloro-6-[(difluoromethyl)oxy]phenyl}carbonyl)amino]methyl}-3,3,3-trifluoro-2-hydroxypropyl)-1-(4-fluorophenyl)-1H-pyrazole-4-carboxamide] | ≤ 0.316 | ≥ 20 | < 1 | 20 to 85
4 | CCN(CC(O)(CNC(=O)c1cnn(-c2c(F)cccc2F)c1N)C(F)(F)F)C(=O)c1c(F)cccc1F (racemic) [Example 37 (racemic), 5-amino-1-(2,6-difluorophenyl)-N-(2-{[[(2,6-difluorophenyl)carbonyl](ethyl)amino]methyl}-3,3,3-trifluoro-2-hydroxypropyl)-1H-pyrazole-4-carboxamide] | ≤ 0.316 | > 85 | < 1 | > 85
5 | Nc1c(C(=O)NCC(O)(CNC(=O)c2c(F)cccc2C(F)(F)F)C(F)(F)F)cnn1-c1ccc(F)cc1 (racemic) [Example 19 (racemic), 5-amino-1-(4-fluorophenyl)-N-{3,3,3-trifluoro-2-[({[2-fluoro-6-(trifluoromethyl)phenyl]carbonyl}amino)methyl]-2-hydroxypropyl}-1H-pyrazole-4-carboxamide] | ≤ 0.316 | ≥ 20 | < 1 | 20 to 85
6 | Nc1c(C(=O)NCC(O)(CNC(=O)c2c(Cl)cccc2C(F)(F)F)C(F)(F)F)cnn1-c1ccc(F)cc1 (single isomer, unassigned) [Example 44 Enantiomer 1, 5-Amino-N-{2-[({[2-chloro-6-(trifluoromethyl)phenyl]carbonyl}amino)methyl]-3,3,3-trifluoro-2-hydroxypropyl}-1-(4-fluorophenyl)-1H-pyrazole-4-carboxamide] | ≤ 0.316 | ≥ 20 | < 1 | 20 to 85
7 | Nc1c(C(=O)NCC(O)(CNC(=O)c2c(F)cccc2Br)C(F)(F)F)cnn1-c1ccc(F)cc1 (racemic) [Example 13 (racemic), 5-Amino-N-[2-({[(2-bromo-6-fluorophenyl)carbonyl]amino}methyl)-3,3,3-trifluoro-2-hydroxypropyl]-1-(4-fluorophenyl)-1H-pyrazole-4-carboxamide] | ≤ 0.316 | ≥ 20 | < 1 | 20 to 85
8 | CCN(CC(O)(CNC(=O)c1cnn(-c2ccc(F)cc2)c1N)C(F)(F)F)C(=O)c1c(F)cccc1Cl (racemic) [Example 4 (racemic), 5-Amino-N-(2-{[[(2-chloro-6-fluorophenyl)carbonyl](ethyl)amino]methyl}-3,3,3-trifluoro-2-hydroxypropyl)-1-(4-fluorophenyl)-1H-pyrazole-4-carboxamide] | ≤ 0.316 | > 85 | < 1 | > 85
9 | Nc1c(C(=O)NCC(O)(CN(CCF)C(=O)c2c(Cl)cccc2Br)C(F)(F)F)cnn1-c1ccc(F)cc1 (racemic) [Example 30 (racemic), 5-amino-N-(2-{[[(2-bromo-6-chlorophenyl)carbonyl](2-fluoroethyl)amino]methyl}-3,3,3-trifluoro-2-hydroxypropyl)-1-(4-fluorophenyl)-1H-pyrazole-4-carboxamide] | ≤ 0.316 | > 85 | < 1 | > 85
10 | Nc1c(C(=O)NCC(O)(CNC(=O)c2c(Br)cccc2C(F)(F)F)C(F)(F)F)cnn1-c1ccc(F)cc1 (racemic) [Example 45 (racemic), 5-Amino-N-{2-[({[2-bromo-6-(trifluoromethyl)phenyl]carbonyl}amino)methyl]-3,3,3-trifluoro-2-hydroxypropyl}-1-(4-fluorophenyl)-1H-pyrazole-4-carboxamide] | ≤ 0.316 | ≥ 20 | < 1 | 20 to 85
11 | CCN(CC(O)(CNC(=O)c1cnn(-c2ccc(F)cc2)c1N)C(F)(F)F)C(=O)c1c(F)cccc1C(F)(F)F (racemic) [Example 23 (racemic), 5-amino-N-{2-[(ethyl{[2-fluoro-6-(trifluoromethyl)phenyl]carbonyl}amino)methyl]-3,3,3-trifluoro-2-hydroxypropyl}-1-(4-fluorophenyl)-1H-pyrazole-4-carboxamide] | ≤ 0.316 | > 85 | < 1 | > 85
12 | Nc1c(C(=O)NCC(O)(CNC(=O)c2c(F)cccc2Cl)C(F)(F)F)cnn1-c1ccc(F)cc1 (racemic) [Example 7 (racemic), 5-Amino-N-[2-({[(2-chloro-6-fluorophenyl)carbonyl]amino}methyl)-3,3,3-trifluoro-2-hydroxypropyl]-1-(4-fluorophenyl)-1H-pyrazole-4-carboxamide] | ≤ 0.316 | ≥ 20 | < 1 | 20 to 85
13 | CCN(CC(O)(CNC(=O)c1cnn(-c2ccc(F)cc2)c1N)C(F)(F)F)C(=O)c1c(Cl)cccc1Cl (racemic) [Example 2 (racemic), 5-Amino-N-(2-{[[(2,6-dichlorophenyl)carbonyl](ethyl)amino]methyl}-3,3,3-trifluoro-2-hydroxypropyl)-1-(4-fluorophenyl)-1H-pyrazole-4-carboxamide] | ≤ 0.316 | > 85 | < 1 | > 85
14 | CN(CC(O)(CNC(=O)c1cnn(-c2ccc(F)cc2)c1N)C(F)(F)F)C(=O)c1c(F)cccc1Cl (racemic) [Example 9 (racemic), 5-Amino-N-(2-{[[(2-chloro-6-fluorophenyl)carbonyl](methyl)amino]methyl}-3,3,3-trifluoro-2-hydroxypropyl)-1-(4-fluorophenyl)-1H-pyrazole-4-carboxamide] | ≤ 0.316 | > 85 | < 1 | > 85
15 | Nc1c(C(=O)NCC(O)(CNC(=O)c2c(Br)cccc2Br)C(F)(F)F)cnn1-c1ccc(F)cc1 (racemic) [Example 11 (racemic), 5-Amino-N-[2-({[(2,6-dibromophenyl)carbonyl]amino}methyl)-3,3,3-trifluoro-2-hydroxypropyl]-1-(4-fluorophenyl)-1H-pyrazole-4-carboxamide] | ≤ 0.316 | ≥ 20 | < 1 | 20 to 85
